According to paper PMC7322544, “Combining an in silico proarrhythmic risk assay with a tPKPD model to predict QTc interval prolongation in the anesthetized guinea pig assay” (Toxicology and Applied Pharmacology, 2020):

Test system: QTc interval
Test: Anesthetized cardiovascular guinea pig (CVGP) assay
Assay type: in vivo
Protocol: Briefly, male Hartley guinea pigs (BW: 350–500 g) were anesthetized with a bolus mixture of ketamine/xylazine (85/5 mg kg^− 1, IM) then an intravenous (iv) infusion of ketamine/xylazine (40/0.5 mg kg^− 1 h^− 1, to effect). The jugular vein and left carotid arteries were cannulated for test article administration and arterial blood pressure (BP) monitoring and blood collection, respectively. The body surface electrocardiogram (ECG) was measured via subcutaneous needle electrodes to record modified lead-II ECG. After surgery, anesthetized GPs were stabilized for a minimum of 10 min before beginning baseline data collection. Solutions of 3 varying test-article concentrations suitable for administering selected doses were prepared in appropriate vehicles. Vehicle alone or test-article solutions were administered i.v. with each dose level infused over a 20-min period. Each test article and vehicle were evaluated in ≥ n = 3 male anesthetized GPs. Blood sampling for pharmacokinetic analysis was taken at 10 and 19 min of each dose level.

SMILES: COc1c(N2C[C@@H]3CCCN[C@@H]3C2)c(F)cc2c(=O)c(C(=O)O)cn(C3CC3)c12 [NCE 7, moxifloxacin]
- CVGP QTc EC5 (anesthetized guinea pig, free plasma concentration causing 5% increase in QTc interval, > = highest free plasma concentration tested without QTc prolongation): 12 µM
- CVGP QTc EC5 (free plasma concentration): 15 µM
- Guinea pig QTc EC5 (free plasma concentration giving 5% QTc increase, > = above highest free plasma concentration tested, no QTc prolongation, i.v. infusion): 15 µM
